Reference: paper PMC13164762, “Development and Validation of an LC-MS/MS Method for the Quantitation of JNJ-64619178 (JNJ) in Mouse Plasma: Characterization of In Vitro and In Vivo Pharmacokinetic Properties” (Molecules, 2026)
Values joined by “and” are separate entries in the source; they are usually repeats but may differ in a detail not shown here. Equal values may be shown once. Read-outs that look alike come from different tables or passages of the source.

Legend:
[1] = Microsomal metabolic stability, human liver microsomes; format: in vitro ADME
Method: Mouse and human liver microsomes were used for the metabolic stability assay. In brief, the incubation mixture (500 µL) consisted of phosphate-buffered saline (PBS) (100 mM, pH 7.4), microsomal protein (0.5 mg mL^−1), magnesium chloride (10 mM), and NADPH (2 mM). Following pre-incubation of the above reaction mixture for 10 min at 37 °C, the reaction was initiated by spiking JNJ at a final 1 µg mL^−1 concentration. Alongside the test compound, testosterone at a final concentration of 1 µg mL^−1 was incubated as a positive control. All experiments were performed in triplicate. At sampling times of 0, 5, 10, 20, 30, 45, and 60 min, 40 µL samples were collected and quenched with 300 µL ice-chilled acetonitrile supplemented with 10 µL IS. Simultaneously, samples from NADPH-free negative controls were also withdrawn and processed accordingly to confirm any non-enzymatic degradation. Finally, after 1 h of collection, samples were vortexed at 1000 rpm for 1 min and centrifuged at 2200× g for 15 min, and the collected supernatant was analyzed using LC-MS/MS.
The natural logarithm of the area ratio versus time was plotted, and the slope of the curve was calculated by a linear regression equation to generate the elimination rate constant, k (min^−1). CLint was calculated by the following equation:(2) CLint=0.693/t1/2×Volume of incubation mixture (mL)/microsomal protein (mg)
CLH,int of JNJ in the mouse and human liver was then estimated from CLint using the scaling factor.(3) CLH,int=CLint×Microsomal protein (mg)/Liver (g)×Liver weight (g)/Body weight (kg)
Here, 45 and 32 mg of microsomal protein per g of liver weight were applied, and 60 and 25 g of liver weight per kg body weight were used for mouse and human tissue, respectively.

[2] = Biodistribution and brain penetration after PO dose; format: in vivo, balb/c mice; conditions: for concentration at 2 h / concentration at 8 h / concentration at 24 h: po
Method: Mouse plasma and tissue samples (liver, spleen, kidney, lung and brain) were prepared following the SPE procedure. Collected tissues were homogenized using Tissue Lyser II purchased from Qiagen Science, KY, after adding four times as much water as the tissue mass. For calibration standards and QC sample preparation, the 10 µL working stock and IS were spiked into 100 µL mouse plasma or tissue homogenates (liver, spleen, kidney, lung, and brain). After vortexing for 30 s on a Mixmate (Eppendorf North America, Enfield, CT, USA), samples were diluted with 600 µL of 5% formic acid and vortexed again at 1000 rpm for 2 min. Samples were centrifuged at 956× g for 10 min to get a clear sample that was not prone to blocking the cartridge during the SPE. Extraction was initiated by conditioning the cartridge (Oasis HLB 1 cc, Waters, Millford, MA, USA) with 1 mL of methanol, followed by a second conditioning with 1 mL of water. Then, the above-prepared samples were loaded into the cartridge and allowed to pass through the cartridge. Next, the cartridge was washed with 1 mL 15% methanol and dried for 1 min prior to the elution. For final elution, 500 µL 5% ammonium hydroxide in acetonitrile was eluted through the cartridges twice. Collected eluates were dried in a nitrogen dryer and reconstituted with 200 µL of mobile phase. Reconstituted samples were centrifuged at 956× g for 10 min, 150 µL supernatants were collected, and 5 µL was injected for LC-MS/MS.
For the oral PK study, male balb/C mice were grouped into two groups, with n = 4 for each group. Throughout the experiment, mice had free access to adequate food and water. The oral solution comprised 20% (v/v) polyethylene glycol 400, 10% (v/v) propylene glycol, 10% (v/v) ethanol, 2% (v/v) DMSO, 5% cremophore, and water as the rest of the volume. For the IV dose administration, 12 male balb/C mice were used in the study, divided into two groups. The IV solution used the same composition as the oral study. Doses of 10 and 2.5 mg kg^−1 were used for oral and IV routes, respectively. Blood samplings were done at 5 min, 15 min, 30 min, 1 h, 2 h, 4 h, 8 h, and 24 h. After collection, blood samples were centrifuged immediately at 956× g for 10 min, and plasma was separated in an Eppendorf tube and stored at −80 °C until processed. In the oral PK study, tissues—liver, kidney, spleen, lung, and brain—were collected at 2, 8, and 24 h to assess the biodistribution pattern of JNJ in the oral route.

[3] = Matrix stability study in mouse brain homogenate; format: in vitro ADME; conditions: 5 µg mL^−1, 37 °C, approximately 5 h, triplicate, read-out: concentration remaining (%)
Method: For the matrix stability study, JNJ was spiked into mouse plasma and brain homogenate at a final concentration of 5 µg mL^−1 and incubated at 37 °C for 5 h on a shaking water bath in triplicate. At the specified sampling times, 50 µL aliquots were taken in the collection plate, followed by quenching with 300 µL acetonitrile containing 10 µL IS. After final collection, samples were vortexed at 1000 rpm for 2 min and centrifuged at 2200× g for 10 min, and the collected supernatant was analyzed using LC-MS/MS. Stability was estimated by determining the % remaining after 5 h of incubation using Equation (1).(1) % remaining=Concentration5h/Concentration0h×100

microsomal intrinsic clearance (CLint) ([1]; HLM, mean ± SD, n = 3): 0.01 ± 0.001 mL min^−1 mg^−1 protein
half-life at 1 µg mL^−1 ([1]; human, liver microsomes, pH 7.4, HLM, mean ± SD, n = 3, read-out: Half-life (t1/2)): 2.47 ± 0.167 h
remaining at 1 h, 1 µg mL^−1 ([1]; human, liver microsomes, pH 7.4, HLMs, NADPH, 1 µg mL^−1, n = 3, read-out: percent remaining concentration after 1 h incubation): 72 ± 2%
Brain Content ([2]; 2 h after single PO 10 mg kg^−1, balb/c mice, n = 4): 55 ng/g
Brain Content ([2]; 8 h after single PO 10 mg kg^−1, balb/c mice, n = 4): 34 ng/g
Brain Content ([2]; 24 h after single PO 10 mg kg^−1, balb/c mice, n = 4): 23 ng/g
unbound plasma and brain concentrations/contents, fold lower than in vitro IC50 ([2]; across all time points, PO 10 mg kg^−1): more than 20 fold
concentration at 2 h ([2]; male, BALB/c, mouse, brain, 10 mg kg^−1, 2 h, PO 10 mg kg^−1, estimated with fu,brain = 0.057, read-out: Unbound Brain Content): 3.1 ng/g
concentration at 2 h ([2]; male, BALB/c, mouse, brain, 10 mg kg^−1, 2 h after single PO 10 mg kg^−1, balb/c mice, n = 4, read-out: Brain Content): 55 ± 27 ng/g
concentration at 8 h ([2]; male, BALB/c, mouse, brain, 10 mg kg^−1, 8 h, PO 10 mg kg^−1, estimated with fu,brain = 0.057, read-out: Unbound Brain Content): 1.9 ng/g
concentration at 8 h ([2]; male, BALB/c, mouse, brain, 10 mg kg^−1, 8 h after single PO 10 mg kg^−1, balb/c mice, n = 4, read-out: Brain Content): 34 ± 1 ng/g
concentration at 24 h ([2]; male, BALB/c, mouse, brain, 10 mg kg^−1, 24 h, PO 10 mg kg^−1, estimated with fu,brain = 0.057, read-out: Unbound Brain Content): 1.3 ng/g
concentration at 24 h ([2]; male, BALB/c, mouse, brain, 10 mg kg^−1, 24 h after single PO 10 mg kg^−1, balb/c mice, n = 4, read-out: Brain Content): 23 ± 3 ng/g
concentration at 8 h ([2]; male, BALB/c, mouse, kidney, 10 mg kg^−1, 8 h after single PO 10 mg kg^−1, balb/c mice, n = 4, read-out: Content, Kidney): 474 ± 131 ng/g
concentration at 24 h ([2]; male, BALB/c, mouse, kidney, 10 mg kg^−1, 24 h after single PO 10 mg kg^−1, balb/c mice, n = 4, read-out: Content, Kidney): 56 ± 27 ng/g
concentration at 8 h ([2]; male, BALB/c, mouse, liver, 10 mg kg^−1, 8 h after single PO 10 mg kg^−1, balb/c mice, n = 4, read-out: Content, Liver): 1190 ± 167 ng/g
concentration at 24 h ([2]; male, BALB/c, mouse, liver, 10 mg kg^−1, 24 h after single PO 10 mg kg^−1, balb/c mice, n = 4, read-out: Content, Liver): 52 ± 31 ng/g
concentration at 2 h ([2]; male, BALB/c, mouse, lung, 10 mg kg^−1, 2 h after single PO 10 mg kg^−1, balb/c mice, n = 4, read-out: Content, Lung): 2570 ± 550 ng/g
concentration at 8 h ([2]; male, BALB/c, mouse, lung, 10 mg kg^−1, 8 h after single PO 10 mg kg^−1, balb/c mice, n = 4, read-out: Content, Lung): 599 ± 91 ng/g
concentration at 24 h ([2]; male, BALB/c, mouse, lung, 10 mg kg^−1, 24 h after single PO 10 mg kg^−1, balb/c mice, n = 4, read-out: Content, Lung): 45 ± 25 ng/g
concentration at 2 h ([2]; male, BALB/c, mouse, plasma, 10 mg kg^−1, 2 h, PO 10 mg kg^−1, balb/c mice, read-out: Plasma Concentration): 1470 ng/mL
concentration at 2 h ([2]; male, BALB/c, mouse, plasma, 10 mg kg^−1, 2 h, PO 10 mg kg^−1, estimated with fu,plasma = 0.025, read-out: Unbound Plasma Concentration): 37 ng/mL
concentration at 8 h ([2]; male, BALB/c, mouse, plasma, 10 mg kg^−1, 8 h, PO 10 mg kg^−1, balb/c mice, read-out: Plasma Concentration): 93 ng/mL
concentration at 8 h ([2]; male, BALB/c, mouse, plasma, 10 mg kg^−1, 8 h, PO 10 mg kg^−1, estimated with fu,plasma = 0.025, read-out: Unbound Plasma Concentration): 2.3 ng/mL
concentration at 24 h ([2]; male, BALB/c, mouse, plasma, 10 mg kg^−1, 24 h, PO 10 mg kg^−1, balb/c mice, read-out: Plasma Concentration): 1.6 ng/mL
concentration at 24 h ([2]; male, BALB/c, mouse, plasma, 10 mg kg^−1, 24 h, PO 10 mg kg^−1, estimated with fu,plasma = 0.025, read-out: Unbound Plasma Concentration): 0.04 ng/mL
concentration at 2 h ([2]; male, BALB/c, mouse, spleen, 10 mg kg^−1, 2 h after single PO 10 mg kg^−1, balb/c mice, n = 4, read-out: Content, Spleen): 1900 ± 220 ng/g
concentration at 8 h ([2]; male, BALB/c, mouse, spleen, 10 mg kg^−1, 8 h after single PO 10 mg kg^−1, balb/c mice, n = 4, read-out: Content, Spleen): 643 ± 58 ng/g
concentration at 24 h ([2]; male, BALB/c, mouse, spleen, 10 mg kg^−1, 24 h after single PO 10 mg kg^−1, balb/c mice, n = 4, read-out: Content, Spleen): 95 ± 25 ng/g
concentration at 2 h ([2]; male, balb/c, mouse, kidney, 10 mg kg^−1, 2 h after single PO 10 mg kg^−1, balb/c mice, n = 4, read-out: Content, Kidney): 2950 ± 822 ng/g
concentration at 2 h ([2]; male, balb/c, mouse, liver, 10 mg kg^−1, 2 h after single PO 10 mg kg^−1, balb/c mice, n = 4, read-out: Content, Liver): 6070 ± 1500 ng/g
Kp uu at 2 h ([2]; male, mouse, brain, 2 h, PO 10 mg kg^−1, balb/c mice, read-out: Kp,uu,brain (unbound brain-to-plasma partition coefficient)): 0.08
Kp uu at 8 h ([2]; male, mouse, brain, 8 h, PO 10 mg kg^−1, balb/c mice, read-out: Kp,uu,brain (unbound brain-to-plasma partition coefficient)): 0.82
Kp uu at 24 h ([2]; male, mouse, brain, 24 h, PO 10 mg kg^−1, balb/c mice, read-out: Kp,uu,brain (unbound brain-to-plasma partition coefficient)): 33.3
remaining at 5 h, 5 µg mL^−1 [3]: ~100%
Compound: Nc1nc2cc(CC[C@H]3C[C@@H](n4ccc5c(N)ncnc54)[C@H](O)[C@@H]3O)ccc2cc1Br [JNJ, JNJ-64619178]
hepatic intrinsic clearance (CLH,int) ([1]; HLM, scaled from CLint (32 mg protein/g liver, 25 g liver/kg)): 7 ± 0.6 mL min^−1 kg^−1 body weight and 7 ± 0.5 mL min^−1 kg^−1 body weight
